System: HEK293 cells
Assay: Quantitative immunocolocalization of RBM45 with the nuclear stress body marker HSF1 in stressed HEK293 cells
Format: cell-based
Conditions: mitoxantrone treatment as cellular stress, quantitative immunocolocalization analysis
Experimental: An imaging-based approach combining immunofluorescence microscopy (IF), digital deconvolution (DD), and automated image analysis (IA) is used to examine RBM45 redistribution and colocalization with markers of subnuclear structures in response to heat shock and mitoxantrone (topoisomerase II inhibitor, genotoxic stress).
For immunocytochemistry experiments, HEK293 cells were grown and stained with antibodies, as above. Corresponding images were subjected to digital deconvolution, counting as above, and quantitative immunocolocalization with markers of subnuclear structures.
Digital deconvolution is a mathematical post-processing method that removes out of focus light from wide field fluorescent microscopic images, based on the mathematical modeling of the behavior of light in a given imaging system, called the point spread function (PSF). The effect of deconvolution is similar, in practice, to using a confocal microscope. […] Several deconvolution procedures exist, which vary in complexity/algorithm. […]
During image analysis, counts are based on thresholding of image pixel intensity values and counts are made using particle detection algorithms (vary size/circularity). On example of colocalization analysis is quantitative immunocolocalization analysis as described in Li et al., 2004. […]

O=C1c2c(O)ccc(O)c2C(=O)c2c(NCCNCCO)ccc(NCCNCCO)c21 [mitoxantrone]
colocalization of RBM45 with the nuclear stress body marker HSF1: significant colocalization

Source: patent US10359436B2, “Nuclear stress response in motor neuron disease and other neurological diseases” (DIGNITY HEALTH, priority 2013, dated 2019)
